Series [1] deals with L. donovani L82. Put plainly: In vivo assay, murine visceral model of leishmaniasis. Also on record: species or system Leishmania donovani. Particulars: Table 4; BALB/c mice; 15 μmol/kg i.v. × 5.
Series [2] has as its system J774.G8 macrophages. Kind of series: Macrophage toxicity assay (sulforhodamine B). Type of series: cell-based, mouse. The settings on record: for IC50 (macrophage toxicity): 72 hours, 37° C., macrophage growth inhibited by 50%; for toxicity to the macrophage (in words): in vitro. As for the experimental part:
The toxicity of the candidate compounds on J774.G8 macrophages was measured using a sulforhodamine B (Molecular Probes, Eugene, Oreg.) based dye assay.
Specifically, a confluent culture of macrophages in a T75 culture flask was harvested by replacing the growth medium (DMEM supplemented with 10% heat inactivated fetal calf serum, 50 units/ml penicillin, and 50 μg/ml streptomycin) with 25 ml of fresh medium and scraping the cells from the bottom of the culture flask. Cell clumps were broken up by gentle pipetting and the cell suspension was transferred to a 50 ml conical centrifuge tube. The cells were then pelleted by centrifugation at 1,000 rpm at 4° C. for 5 minutes. The supernatant was then removed and the cells were resuspended in 15 ml DMEM.
After counting an aliquot of the cell suspension, the macrophages were then diluted to about 1×10^5 cells/ml in DMEM and 180 μl was added to each well of a 96 well tissue culture plate Then 20 μl serial dilutions of a given candidate compound was added. The plate was then placed in a 37° C. humidified 5% CO2 incubator and incubated for 72 hours. Then 50 μl of 50% TCA was added to each well to fix the proteins. The plate was then incubated for at least 1 hour at 4° C.
The liquid contents of the wells were discarded and the wells were washed five times with 200 μl of distilled water. After the final wash the plate was allowed to air dry for 20 minutes. 100 μl of the sulforhodamine B dye (0.4% dye in 1% acetic acid) was added. The plate was then incubated at room temperature for 20 minutes. After discarding the dye solution, the wells were washed five times with 200 μl of 1% acetic acid and then allowed to air dry for 20 minutes. At this time, 50 μl of 10 mM TRIS base was added. After a few minutes of incubation, the absorbance of each well at 490 nm was measured in a SpectraMax Pro microplate reader (Molecular Devices, Sunnyvale, Calif.).
The IC50 values for each candidate compound (the concentration of the agent that inhibited macrophage growth by 50%) were determined for the macrophages with the aid of the program SoftMax Pro (Molecular Devices, Sunnyvale, Calif.) using the following dose response equation: y=((a−d)/1+(x/c)^b)+d, where x=drug concentration; y=absorbance at 490 nm; a=upper asymptote; b=slope; c=IC50; and d=lower asymptote. FIG. 5 provides the graphical data for compound 1DWB667 as an example.

“2,5-Bis[2-chloro-4-(2-pyridylimino)aminophenyl]furan [DB 712]”: the “% inhibition ± S.E.M.” value in series [1] was found to be 15.33 ± 2.7%. Also, in series [2], the “IC50 (macrophage toxicity)” value was 3.39 µg/mL; the “toxicity to the macrophage (in words)” value was “about less than or equal to DB 702 and 1DWB667”. Regarding “2,5-Bis[2-methoxy-4-(2-pyridylimino)aminophenyl]furan [DB 709]”, in series [2], the “IC50 (macrophage toxicity)” value turned out to be 0.199 µg/mL and the “toxicity to the macrophage (in words)” value is reported as “toxic to the macrophage in vitro within the same range of toxicity to the amastigote within the macrophage”. With “2,5-Bis[2-methyl-4-(2-pyridylimino)aminophenyl]furan [DB 702]”, the “IC50 (macrophage toxicity)” value in series [2] was 2.23 µg/mL. For “2,5-Bis[2-methyl-4-(5-methyl-2-pyridylimino)aminophenyl]furan [DB 710]”, in series [2], the “IC50 (macrophage toxicity)” value was determined as 3.64 µg/mL; the “toxicity to the macrophage (in words)” value was “about less than or equal to DB 702 and 1DWB667”. On to “2,5-Bis[4-(2-pyridylimino)aminophenyl]furan [1DWB 667]”, for which, in series [2], the “IC50 (macrophage toxicity)” value worked out at 4.28 µg/mL.

The values above are taken from US6706754B2, “Reversed amidines and methods of using for treating, preventing, or inhibiting leishmaniasis” (The United States of America as represented by the …, priority 2000, dated 2004).
